Results: patent US5612329A (priority 1995, dated 1997)

Tests used:
pBR322 DNA = type: biochemical; settings: 37° C., 18 hr, pH 7.4
CCRF-CEN cells = assay: In vitro cytotoxicity / cell growth inhibition, leukemia; type: cell-based; settings: Homo sapiens, 48 hr, read-out: log10 G150 (converted)
Description: (§1) The anti-proliferative activities of the aziridinylpolyamines obtained in Synthesis Examples 1-4 were assessed by determining log10 G150 values against human cancer cell lines using the screening strategy described by Boyd et al, Drug Devel. Res. 34:91-109 (1995).
(§2) More specifically, the compounds were tested at a minimum of five concentrations at 10-fold dilutions using a 48 hr continuous exposure protocol. Each cell line shown in Table 1 below was inoculated onto microtiter plates. After a pre-incubation period of 24-48 hr at 37° C., the test compounds were added, and the culture was incubated for an additional 48 hr at 37° C. Cell viability or cell growth end-point determinations were performed by fixation of the cells, followed by staining with sulforhodamine B (Monks et al, J. Natl. Cancer Inst., 83:757-766 (1991)).

K-562 cells = assay: as above; type: cell-based; settings: Homo sapiens, K562; K-562, leukemia, 48 hr; read-out: log10 G150 (converted)
Description: as §1, §2

MOLT-4 cells = assay: as above; type: cell-based; settings: Homo sapiens; MOLT-4, leukemia, 48 hr; read-out: log10 G150 (converted)
Description: as §1, §2

RPMI-8226 cells = assay: as above; type: cell-based; settings: Homo sapiens; RPMI-8226, leukemia, 48 hr; read-out: log10 G150 (converted)
Description: as §1, §2

SR cells = assay: as above; type: cell-based; settings: Homo sapiens, 48 hr, read-out: log10 G150 (converted)
Description: as §1, §2

HL-60 (TB) cells = assay: cells; type: cell-based; settings: Homo sapiens, leukemia, 48 hr, read-out: log10 G150 (converted)
SF-539 cells = assay: In vitro cytotoxicity / cell growth inhibition, CNS cancer; type: cell-based; settings: Homo sapiens; SF-539, CNS cancer, 48 hr; read-out: log10 G150 (converted)
Description: as §1, §2

786-0 cells = assay: In vitro cytotoxicity / cell growth inhibition, renal cancer; type: cell-based; settings: Homo sapiens; 786-0, renal cancer, 48 hr; read-out: log10 G150 (converted)
Description: as §1, §2

A498 cells = assay: as above; type: cell-based; settings: Homo sapiens, 48 hr, read-out: log10 G150 (converted)
Description: as §1, §2

ACHN cells = assay: as above; type: cell-based; settings: Homo sapiens, 48 hr, read-out: log10 G150 (converted)
Description: as §1, §2

CAKI-1 cells = assay: as above; type: cell-based; settings: Homo sapiens; CAKI-1, renal cancer, 48 hr; read-out: log10 G150 (converted)
Description: as §1, §2

RXF-393 cells = assay: as above; type: cell-based; settings: Homo sapiens; RXF-393, renal cancer, 48 hr; read-out: log10 G150 (converted)
Description: as §1, §2

SN12C cells = assay: as above; type: cell-based; settings: Homo sapiens, 48 hr, read-out: log10 G150 (converted)
Description: as §1, §2

TK-10 cells = assay: as above; type: cell-based; settings: Homo sapiens; TK-10, renal cancer, 48 hr; read-out: log10 G150 (converted)
Description: as §1, §2

UO-31 cells = assay: as above; type: cell-based; settings: Homo sapiens; UO-31, renal cancer, 48 hr; read-out: log10 G150 (converted)
Description: as §1, §2

L1210 murine leukemia = assay: In vivo testing in mice bearing L1210 leukemia; design: species or system female CD2 F1 mice; settings: for LD20: footnote e
From the text: Virus-free, adult female CD2 F1 mice were obtained from the Animal Genetics and Production Branch of the National Cancer Institute. To minimize exogenous infection, mice were housed in microisolator caging and handled in accordance with the NIH Guide for the care and use of laboratory animals (NIH No. 85-23, 1985). The mice were randomized to groups of 5 mice per group, except titration groups which consisted of 10 mice per group, and the untreated control group which consisted of 20 mice.
On day 0, the mice were inoculated intraperitoneally with 1.0×10^5 L1210 mouse leukemia cells/mouse for the treatment and control groups. The titration groups received 1.0×10^4 to 1.0×10^6 L1210 cells/mouse.
Dosing solutions were freshly prepared just prior to treatment by dissolving 1,12-diaziridinyl-4,9-diazadodecane in 25 mM sodium phosphate buffer (pH 7.4), giving concentrations of 0.18-0.6 mg/ml.
Beginning on day 1, dosing solutions were administered intravenously by tail vein at 0.01 ml/g of body weight. The doses of 1,12-diaziridinyl-4,9-diazadodecane were 6.0, 4.0, 2.7, and 1.8 mg/kg. The dosing schedule was: a single dose on day 1; 3 doses every four days beginning on day 1; 2 doses every seven days beginning on day 1; or 2 doses on days 1 and 2.
Percent increase in lifespan was calculated using the formula, (T-C/C)·100, where T is the median day of death for the various treatment groups, and C is the median day of death for the control group.
The net log cell kill is an estimate of the number of cells that are killed by the drug at each specific dose and schedule, and was calculated by the formula, ((T-C)-Duration of Treatment)·0.3/Tumor Doubling Time.

C(CCNCCCN1CC1)CNCCCN1CC1 [Synthesis Example 1, 1,12-Diaziridinyl-4,9-diazadodecane]
concentration at which DNA was found to be cross-linked (pBR322 DNA): ≤ 0.1 µM
GI50 (CCRF-CEN cells): 63.1 nM
GI50 (K-562 cells): 4370 nM
GI50 (MOLT-4 cells): 44.7 nM
GI50 (RPMI-8226 cells): 5130 nM
GI50 (SR cells): 18.2 nM
GI50 (HL-60 (TB) cells): 35.5 nM
GI50 (SF-539 cells): 37.2 nM
GI50 (786-0 cells): 11.2 nM
GI50 (A498 cells): 1820 nM
GI50 (ACHN cells): 141 nM
GI50 (CAKI-1 cells): 18.6 nM
GI50 (RXF-393 cells): 138 nM
GI50 (SN12C cells): 135 nM
GI50 (TK-10 cells): 3240 nM
GI50 (UO-31 cells): 575 nM
Net log cell kill (NLCK) (L1210 murine leukemia; 1.8 mg/kg i.v. on day 1): 4
Percent increase in life span (% ILS) (L1210 murine leukemia; 1.8 mg/kg i.v. on day 1): 57%
Survival (median day of death) (L1210 murine leukemia; 1.8 mg/kg i.v. on day 1): 11 days
Net log cell kill (NLCK) (L1210 murine leukemia; 1.8 mg/kg i.v. on days 1, 2): 6
Percent increase in life span (% ILS) (L1210 murine leukemia; 1.8 mg/kg i.v. on days 1, 2): 100%
Survival (median day of death) (L1210 murine leukemia; 1.8 mg/kg i.v. on days 1, 2): 14 days
Net log cell kill (NLCK) (L1210 murine leukemia; 1.8 mg/kg i.v. on days 1, 5, 9): 2
Percent increase in life span (% ILS) (L1210 murine leukemia; 1.8 mg/kg i.v. on days 1, 5, 9): 143%
Survival (median day of death) (L1210 murine leukemia; 1.8 mg/kg i.v. on days 1, 5, 9): 17 days
Net log cell kill (NLCK) (L1210 murine leukemia; 1.8 mg/kg i.v. on days 1, 8): -1
Percent increase in life span (% ILS) (L1210 murine leukemia; 1.8 mg/kg i.v. on days 1, 8): 86%
Survival (median day of death) (L1210 murine leukemia; 1.8 mg/kg i.v. on days 1, 8): 13 days
Net log cell kill (NLCK) (L1210 murine leukemia; 2.7 mg/kg i.v. on day 1): 3
Percent increase in life span (% ILS) (L1210 murine leukemia; 2.7 mg/kg i.v. on day 1): 42%
Survival (median day of death) (L1210 murine leukemia; 2.7 mg/kg i.v. on day 1): 10 days
Net log cell kill (NLCK) (L1210 murine leukemia; 2.7 mg/kg i.v. on days 1, 2): 6
Percent increase in life span (% ILS) (L1210 murine leukemia; 2.7 mg/kg i.v. on days 1, 2): 100%
Survival (median day of death) (L1210 murine leukemia; 2.7 mg/kg i.v. on days 1, 2): 14 days
Net log cell kill (NLCK) (L1210 murine leukemia; 2.7 mg/kg i.v. on days 1, 5, 9): 4
Percent increase in life span (% ILS) (L1210 murine leukemia; 2.7 mg/kg i.v. on days 1, 5, 9): 171%
Survival (median day of death) (L1210 murine leukemia; 2.7 mg/kg i.v. on days 1, 5, 9): 19 days
Net log cell kill (NLCK) (L1210 murine leukemia; 2.7 mg/kg i.v. on days 1, 8): 2
Percent increase in life span (% ILS) (L1210 murine leukemia; 2.7 mg/kg i.v. on days 1, 8): 129%
Survival (median day of death) (L1210 murine leukemia; 2.7 mg/kg i.v. on days 1, 8): 16 days
Net log cell kill (NLCK) (L1210 murine leukemia; 4.0 mg/kg i.v. on day 1): 4
Percent increase in life span (% ILS) (L1210 murine leukemia; 4.0 mg/kg i.v. on day 1): 57%
Survival (median day of death) (L1210 murine leukemia; 4.0 mg/kg i.v. on day 1): 11 days
Net log cell kill (NLCK) (L1210 murine leukemia; 4.0 mg/kg i.v. on days 1, 2): -3
Percent increase in life span (% ILS) (L1210 murine leukemia; 4.0 mg/kg i.v. on days 1, 2): -29%
Survival (median day of death) (L1210 murine leukemia; 4.0 mg/kg i.v. on days 1, 2): 5 days
Net log cell kill (NLCK) (L1210 murine leukemia; 4.0 mg/kg i.v. on days 1, 5, 9): -7
Percent increase in life span (% ILS) (L1210 murine leukemia; 4.0 mg/kg i.v. on days 1, 5, 9): 14%
Survival (median day of death) (L1210 murine leukemia; 4.0 mg/kg i.v. on days 1, 5, 9): 8 days
Net log cell kill (NLCK) (L1210 murine leukemia; 4.0 mg/kg i.v. on days 1, 8): 4
Percent increase in life span (% ILS) (L1210 murine leukemia; 4.0 mg/kg i.v. on days 1, 8): 157%
Survival (median day of death) (L1210 murine leukemia; 4.0 mg/kg i.v. on days 1, 8): 18 days
Net log cell kill (NLCK) (L1210 murine leukemia; 6.0 mg/kg i.v. on day 1): -1
Percent increase in life span (% ILS) (L1210 murine leukemia; 6.0 mg/kg i.v. on day 1): -14%
Survival (median day of death) (L1210 murine leukemia; 6.0 mg/kg i.v. on day 1): 6 days
LD20 (L1210 murine leukemia; i.v. on day 1): 4.0 mg/kg
LD20 (L1210 murine leukemia; i.v. on days 1, 2): 2.7 mg/kg
LD100 (L1210 murine leukemia; i.v. on days 1, 2, footnote f): 4.0 mg/kg
LD20 (L1210 murine leukemia; i.v. on days 1, 5, 9): 4.0 mg/kg
LD20 (L1210 murine leukemia; i.v. on days 1, 8): 4.0 mg/kg
increase in the life span (L1210 murine leukemia; i.v., doses of less than 2.7 mg/kg, days 1, 5, and 9): significant increase in the life span
